Test results reported in patent US20110190130A1, “SYNERGISTIC HERBICIDAL COMPOSITION CONTAINING AMINOPYRALID AND 2,4-DICHLOROPHENOXYACETIC ACID” (DOW AGROSCIENCES LLC, priority 2010, published 2011).

Columns and labels:
Format in all cases: in vivo
[1] = tested on: purple nutsedge (Cyperus rotundus, CYPRO); test: Postemergence herbicidal activity of mixtures under field conditions, purple nutsedge; conditions: 27 days after application, rice
Method: (§1) These trials were conducted under field conditions in Tolima, Colombia. Trial sites were located in commercially grown fields of common rice (Oryza sativa). The rice crop was grown using normal cultural practices for fertilization, seeding, and maintenance to ensure good growth of the crop and the weeds. The trials were conducted using normal research methodology. Trial plots were 3 meters (m) wide by 6 m long. All treatments were applied using a randomized complete block trial design with 4 replications per treatment. The trial sites had naturally occurring populations of weeds. The weed spectrum included, but was not limited to, rice flatsedge (Cyperus iria, CYPIR); purple nutsedge (Cyperus rotundus, CYPRO); and common purslane, (Portulaca oleracea, POROL). The plots were treated with a postemergence foliar application 15 to 20 days after emergence of the rice.
(§2) Treatments consisted of tank mixes of soluble granules of aminopyralid tri-isopropanolammonium salt and commercially available formulations of 2,4-D (DMA 6 herbicide, water dispersible granules). The application volume was 160 liters per hectare (L/ha) of water. All application were made using precision gas hand sprayers using a 3 m boom using flat fan) (80° nozzles to broadcast the treatments over the top of the rice.
(§3) The treated plots and control plots were rated blind at various intervals after application. Ratings were based of Percent (%) Visual weed control, where 0 corresponds to no injury and 100 corresponds to complete kill.
(§4) Colby's equation was used to determine the herbicidal effects expected from the mixtures (Colby, S. R. Calculation of the synergistic and antagonistic response of herbicide combinations. Weeds 1967 15, 20-22).
(§5) The following equation was used to calculate the expected activity of mixtures containing two active ingredients, A and B:
(§6) A=observed efficacy of active ingredient A at the same concentration as used in the mixture;
(§7) B=observed efficacy of active ingredient B at the same concentration as used in the mixture.

[2] = tested on: common purslane (Portulaca oleracea, POROL); test: Postemergence herbicidal activity of mixtures under field conditions, common purslane; conditions: 27 days after application, rice
Method: as §1, §2, §3, §4, §5, §6, §7

[3] = tested on: rice flatsedge (Cyperus iria, CYPIR); test: Postemergence herbicidal activity of mixtures under field conditions, rice flatsedge; conditions: 27 days after application
Method: as §1, §2, §3, §4, §5, §6, §7

[4] = aminopyralid 9 grams ae/ha alone
[5] = aminopyralid 12 grams ae/ha alone

`O=C(O)COc1ccc(Cl)cc1Cl` [2,4-D, 2,4-dichlorophenoxyacetic acid] was tested, and the “% Control CYPRO Obs” value ([1]; 2,4-D 180 grams ae/ha alone) was 38%, the “% Control CYPRO Obs” value ([1]; 2,4-D 240 grams ae/ha alone) was 60% and the “% Control POROL Obs” value ([2]; 2,4-D 180 grams ae/ha alone) was 20%. The “% Control POROL Obs” value ([2]; 2,4-D 240 grams ae/ha alone) was 39%, the “% Control CYPIR Obs” value ([3]; 2,4-D 180 grams ae/ha alone) was 45% and the “% Control CYPIR Obs” value ([3]; 2,4-D 240 grams ae/ha alone) was 46%.

`Nc1cc(Cl)nc(C(=O)O)c1Cl` [Aminopyralid, 4-amino-3,6-dichloro-2-pyridinecarboxylic acid] was tested, and the “% Control CYPRO Obs” value [1, 4] was 0%, the “% Control CYPRO Obs” value [1, 5] was 0% and the “% Control POROL Obs” value [2, 4] was 41%. For the same compound, the “% Control POROL Obs” value [2, 5] was 53%, the “% Control CYPIR Obs” value [3, 4] was 0% and the “% Control CYPIR Obs” value [3, 5] was 13%.
